Laboratory results as given in US11071731B2, “Allosteric modulators of the mu opioid receptor” (Chiromics, LLC, priority 2017, dated 2021).

Key:
mu opioid receptor (MOR) [1] = target: T1, mu opioid receptor (MOR) (Homo sapiens, UniProt P35372); assay: PathHunter β-arrestin recruitment assay, PAM mode with EC20 endomorphin-1; type: cell-based; conditions: for EC50: β-arrestin recruitment, read-out: β-arr. EC50
Description: The effects of MOR PAMs and MOR SAMs on receptor activity were assayed using the PathHunter enzyme complementation assay technology (DiscoveRx, CA). A description of the technology employed is as follows.
Beta-Arrestin Pathway: The PathHunter β-arrestin assay monitors the activation of a GPCR in a homogenous, non-imaging assay format using a technology developed by DiscoveRx called Enzyme Fragment Complementation (EFC) with beta-galactosidase (β-Gal) as the functional reporter. […] EA is fused to β-Arrestin and ED is fused to the GPCR of interest. When the GPCR is activated and β-arrestin is recruited to the receptor, ED and EA complementation occurs, restoring β-gal activity, which is measured using chemiluminescent PathHunter Detection Reagents.
In this manner an EC50 for each test compound, and percent maximal response for each test compound, were determined for both the β-arrestin and cAMP pathways. Though the pharmacological effects of a given signal bias can be hypothesized (Raehal et al. (2011) Pharmacol. Rev. 63:1001-1019), it is not possible to know with certainty which bias ratio will be most advantageous in a clinical setting. […] Kenakin 2015a, supra. The information associated with the compounds detailed herein is the first large data set available for the prediction of ligand bias for an MOR PAM.

mu opioid receptor (MOR) [2] = target: T1, mu opioid receptor (MOR); assay: Hit Hunter cAMP signaling assay (adenylyl cyclase inhibition), PAM mode with EC20 endomorphin-1; type: cell-based; conditions: for EC50: adenylyl cyclase inhibition, read-out: cAMP EC50
[3] = maximal response for β-arrestin recruitment
[4] = maximal response for adenylyl cyclase inhibition

T1 sequence (P35372 whole entry): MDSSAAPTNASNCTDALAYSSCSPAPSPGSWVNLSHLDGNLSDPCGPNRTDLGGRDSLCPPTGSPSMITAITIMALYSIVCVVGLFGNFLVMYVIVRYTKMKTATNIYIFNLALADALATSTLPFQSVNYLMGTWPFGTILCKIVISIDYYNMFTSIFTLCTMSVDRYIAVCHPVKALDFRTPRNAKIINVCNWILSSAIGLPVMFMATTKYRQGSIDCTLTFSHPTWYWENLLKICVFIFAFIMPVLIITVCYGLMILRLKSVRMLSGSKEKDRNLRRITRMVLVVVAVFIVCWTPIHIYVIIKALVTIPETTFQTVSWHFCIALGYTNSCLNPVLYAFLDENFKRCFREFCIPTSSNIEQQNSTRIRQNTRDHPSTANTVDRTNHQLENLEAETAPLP

Row | Structure (SMILES) | β-arr Max. Resp. (mu opioid receptor (MOR) [1]; [3]) | EC50 (mu opioid receptor (MOR) [1]) [µM] | EC50 (mu opioid receptor (MOR) [2]) [µM] | cAMP Max. Resp. (mu opioid receptor (MOR) [2]; [4]) | β-arr. Max Resp. (mu opioid receptor (MOR) [1]; maximal response for β-arrestin recruitment, Table 3) | EC50 (mu opioid receptor (MOR) [1]; Table 3) [µM] | EC50 (mu opioid receptor (MOR) [2]; Table 3) [µM] | cAMP Max Resp. (mu opioid receptor (MOR) [2]; maximal response for adenylyl cyclase inhibition, Table 3)
1 | CC1CCN(S(=O)(=O)c2ccc(Cl)cc2)C1c1ccc(F)c(F)c1 (mixture of isomers) [Compound 97] | F (F represents a maximal response of > 60%) | 0.7 to 2.1 | 0.7 to 2.1 | D (D represents a maximal response of < 40%) | – | – | – | –
2 | CC1CCN(S(=O)(=O)c2ccc(Cl)cc2)C1c1ccc(F)c(F)c1F (mixture of isomers) [Compound 98] | E (E represents a maximal response of 40-60%) | > 2.1 | > 2.1 | D (D represents a maximal response of < 40%) | – | – | – | –
3 | CC1CCN(S(=O)(=O)c2ccc(Cl)cc2)C1c1ccc(Cl)c(Br)c1 (mixture of isomers) [Compound 99] | E (E represents a maximal response of 40-60%) | < 0.7 | < 0.7 | D (D represents a maximal response of < 40%) | – | – | – | –
4 | Cc1cc(C2C(C)CCN2S(=O)(=O)c2ccc(Cl)cc2)ccc1F (mixture of isomers) [Compound 101] | F (F represents a maximal response of > 60%) | 0.7 to 2.1 | < 0.7 | D (D represents a maximal response of < 40%) | – | – | – | –
5 | COc1ccc(C2C(C)CCN2S(=O)(=O)c2ccc(Cl)cc2)cc1Br (mixture of isomers) [Compound 102] | F (F represents a maximal response of > 60%) | > 2.1 | 0.7 to 2.1 | E (E represents a maximal response of 40-60%) | – | – | – | –
6 | COc1ccc(C2N(S(=O)(=O)c3ccc(Cl)cc3)CCC2(F)C(F)(F)F)cc1Br (mixture of isomers) [Compound 103] | F (F represents a maximal response of > 60%) | > 2.1 | 0.7 to 2.1 | D (D represents a maximal response of < 40%) | – | – | – | –
7 | Cc1ccc(C2C(C)CCN2S(=O)(=O)c2ccc(Cl)cc2)cc1Br (mixture of isomers) [Compound 104] | F (F represents a maximal response of > 60%) | 0.7 to 2.1 | 0.7 to 2.1 | D (D represents a maximal response of < 40%) | – | – | – | –
8 | CC1CCN(S(=O)(=O)c2ccc(Cl)cc2)C1c1ccc(F)c(Cl)c1 (mixture of isomers) [Compound 105] | F (F represents a maximal response of > 60%) | 0.7 to 2.1 | 0.7 to 2.1 | D (D represents a maximal response of < 40%) | – | – | – | –
9 | [O-][S+]1CCN(c2nc(Cl)ncc2F)C(c2cc(F)cc(C(F)(F)F)c2)C1 (mixture of isomers) [Compound 302] | E (E represents a maximal response of 40-60%) | > 2.1 | > 2.1 | D (D represents a maximal response of < 40%) | – | – | – | –
10 | CC1CCN(S(=O)(=O)c2ccc(Cl)cc2)C1c1ccc(F)c(C(F)(F)F)c1 (mixture of isomers) [compound 100] | F (F represents a maximal response of > 60%) | < 0.7 | > 2.1 | D (D represents a maximal response of < 40%) | 76 | 0.522 | > 25 | 25
11 | COc1ccc(C2N(S(=O)(=O)c3ccc(Cl)cc3)CCC2(F)F)cc1Br (racemic) [Compound 85] | D (D represents a maximal response of < 40%) | > 2.1 | > 2.1 | D (D represents a maximal response of < 40%) | – | – | – | –
12 | O=S(=O)(c1ccc(Cl)cc1)N1CCOCC1c1ccc(F)c(Br)c1 (racemic) [Compound 185] | F (F represents a maximal response of > 60%) | 0.7 to 2.1 | > 2.1 | D (D represents a maximal response of < 40%) | – | – | – | –
13 | Fc1cnc(Cl)nc1N1CCOCC1c1cccc(C(F)(F)F)n1 (racemic) [Compound 186] | E (E represents a maximal response of 40-60%) | > 2.1 | > 2.1 | D (D represents a maximal response of < 40%) | – | – | – | –
14 | COc1ccc(C2COCCN2c2nc(Cl)ncc2F)cc1Br (racemic) [Compound 187] | F (F represents a maximal response of > 60%) | > 2.1 | > 2.1 | E (E represents a maximal response of 40-60%) | – | – | – | –
15 | Fc1cnc(Cl)nc1N1CCOCC1c1cccc(C(F)(F)F)c1 (racemic) [Compound 188] | F (F represents a maximal response of > 60%) | > 2.1 | 0.7 to 2.1 | E (E represents a maximal response of 40-60%) | – | – | – | –
16 | Fc1ccc(C2COCCN2c2nc(Cl)ncc2F)cc1Cl (racemic) [Compound 189] | F (F represents a maximal response of > 60%) | 0.7 to 2.1 | 0.7 to 2.1 | F (F represents a maximal response of > 60%) | – | – | – | –
17 | Fc1cc(C2COCCN2c2nc(Cl)ncc2F)cc(C(F)(F)F)c1 (racemic) [Compound 190] | F (F represents a maximal response of > 60%) | 0.7 to 2.1 | < 0.7 | F (F represents a maximal response of > 60%) | – | – | – | –
18 | Fc1ccc(Cl)cc1CN1CCOCC1c1cccc(C(F)(F)F)n1 (racemic) [Compound 191] | F (F represents a maximal response of > 60%) | 0.7 to 2.1 | 0.7 to 2.1 | E (E represents a maximal response of 40-60%) | – | – | – | –
19 | COc1ccc(C2COCCN2Cc2cc(Cl)ccc2F)cc1Br (racemic) [Compound 192] | F (F represents a maximal response of > 60%) | > 2.1 | > 2.1 | D (D represents a maximal response of < 40%) | – | – | – | –
20 | Fc1ccc(Cl)cc1CN1CCOCC1c1cccc(C(F)(F)F)c1 (racemic) [Compound 193] | F (F represents a maximal response of > 60%) | 0.7 to 2.1 | > 2.1 | F (F represents a maximal response of > 60%) | – | – | – | –
21 | Fc1ccc(C2COCCN2Cc2cc(Cl)ccc2F)cc1Cl (racemic) [Compound 194] | F (F represents a maximal response of > 60%) | 0.7 to 2.1 | 0.7 to 2.1 | D (D represents a maximal response of < 40%) | – | – | – | –
22 | Fc1cc(C2COCCN2Cc2cc(Cl)ccc2F)cc(C(F)(F)F)c1 (racemic) [Compound 195] | F (F represents a maximal response of > 60%) | 0.7 to 2.1 | > 2.1 | D (D represents a maximal response of < 40%) | – | – | – | –
23 | COc1ccc(C2COCCN2S(=O)(=O)c2ccc(Cl)cc2)cc1Br (racemic) [Compound 222] | F (F represents a maximal response of > 60%) | > 2.1 | 0.7 to 2.1 | D (D represents a maximal response of < 40%) | – | – | – | –
24 | CN1CCN(c2nc(Cl)ncc2F)C(c2cccc(C(F)(F)F)c2)C1 (racemic) [Compound 282] | F (F represents a maximal response of > 60%) | 0.7 to 2.1 | 0.7 to 2.1 | D (D represents a maximal response of < 40%) | – | – | – | –
25 | Fc1cc(C2CSCCN2c2nc(Cl)ncc2F)cc(C(F)(F)F)c1 (racemic) [Compound 301] | F (F represents a maximal response of > 60%) | 0.7 to 2.1 | < 0.7 | E (E represents a maximal response of 40-60%) | – | – | – | –
26 | O=S1(=O)CCN(c2nc(Cl)ncc2F)C(c2cc(F)cc(C(F)(F)F)c2)C1 (racemic) [Compound 303] | D (D represents a maximal response of < 40%) | > 2.1 | > 2.1 | E (E represents a maximal response of 40-60%) | – | – | – | –
27 | CN1CCN(c2nc(Cl)ncc2F)C(c2cc(F)cc(C(F)(F)F)c2)C1 (racemic) [Compound 305] | F (F represents a maximal response of > 60%) | 0.7 to 2.1 | 0.7 to 2.1 | F (F represents a maximal response of > 60%) | – | – | – | –
28 | CN(C)CC(=O)N1CCN(c2nc(Cl)ncc2F)C(c2cc(F)cc(C(F)(F)F)c2)C1 (racemic) [Compound 306] | D (D represents a maximal response of < 40%) | > 2.1 | > 2.1 | F (F represents a maximal response of > 60%) | – | – | – | –
29 | CC(C)(O)C(=O)N1CCN(c2nc(Cl)ncc2F)C(c2cc(F)cc(C(F)(F)F)c2)C1 (racemic) [Compound 307] | D (D represents a maximal response of < 40%) | > 2.1 | > 2.1 | F (F represents a maximal response of > 60%) | – | – | – | –
30 | CC(=O)N1CCN(c2nc(Cl)ncc2F)C(c2cc(F)cc(C(F)(F)F)c2)C1 (racemic) [Compound 308] | E (E represents a maximal response of 40-60%) | > 2.1 | > 2.1 | F (F represents a maximal response of > 60%) | – | – | – | –
